In patent US9682978B2, “2,6,7 substituted purines as HDM2 inhibitors” (Merck Sharp & Dohme Corp., priority 2013, dated 2017):

Target: T1, HDM2 (Homo sapiens, UniProt Q00987)
T1 construct: Thioredoxin (N); made in house; host or cells: E. coli BL21(DE3)Rosetta (pET32a)
Assay: HDM2 FRET assay (inhibition of p53 peptide binding to HDM2)
Settings: truncated HDM2 residues 17 to 125, 0.5 nM HDM2, 3 nM FITC labeled 8-mer peptide, two hour incubation
Source text: Methods: An HDM2 FRET assay was developed to assess the compounds' inhibitory activity towards binding of p53 protein. A truncated version of HDM2 with residues 17 to 125 (containing p53 binding surface, Science (1994) 265, 346-355), with N-terminal His and Thioredoxin tag was generated in pET32a expression vector and expressed in E. coli strain BL21(DE3)Rosetta. Protein was purified using Ni-affinity chromatography, followed by size exclusion chromatography using Superdex 75 26/60 column. To assess inhibition of p53 binding to HDM2, a FITC labeled 8-mer peptide (sequence: Ac-Phe-Arg-Dpr-Ac6c-(6-Br)Trp-Glu-Glu-Leu-NH2; Anal Biochem. 2004 Aug. 1; 331(1):138-46) with strong affinity towards p53 binding pocket of HDM2 was used. The HDM2 assay buffer contained 1× Phosphate Buffered Saline (Invitrogen, Cat#14190), 0.01% BSA (Jackson ImmunoResearch, Cat#001-000-162), 0.01% Tween-20. In the 1× assay buffer recombinant HDM2 protein, peptide and Lumi4-Tb Cryptate-conjugate mouse anti-6×HIS antibody (cisbio, Cat#Tb61HISTLB) were added and transferred to ProxiPlate PLUS (PerkinElmer, Cat#6008269), containing compounds so that final DMSO concentration is 0.1%. Final concentrations of reagents in the assay wells are 0.5 nM HDM2, 0.25 nM anti HIS (Tb label) antibody and 3 nM peptide. After two hour incubation at room temperature in a humidified chamber plates were read on EnVision plate reader with the following settings: excitation: UV, […], two emission filters: 520 nm and 495 nm respectively. Ratio of em520/em495 was used to calculate % inhibition and to obtain IC50 with 4-parameter logistic equation.
IC50 DETERMINATIONS: Dose-response curves were plotted from the inhibition data, from 10 point serial dilutions of inhibitory compounds. Concentration of compound was plotted against em520/Cem495 ratio signal. To generate IC50 values, the dose-response curves were fitted to a standard sigmoidal curve and IC50 values were derived by nonlinear regression analysis. IC50 values in the above table are rounded to the nearest integer.

T1 sequence (Q00987 17-125): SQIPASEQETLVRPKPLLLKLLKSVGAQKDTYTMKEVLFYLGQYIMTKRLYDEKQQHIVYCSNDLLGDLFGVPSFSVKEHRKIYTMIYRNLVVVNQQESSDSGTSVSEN

SMILES: Cc1ncc(Cl)cc1-c1nc(-c2noc(=O)[nH]2)nc2ncn(C[C@H]3CC[C@H](C)CC3)c12 [Example 2.21, 3-{6-(5-chloro-2-methylpyridin-3-yl)-7-[(trans-4-methylcyclohexyl)methyl]-7H-purin-2-yl}-1,2,4-oxadiazol-5(4H)-one]
- IC50 (Table 2): 87.8 nM

SMILES: C[C@@H](Nc1nc(C(=O)O)nc2ncn(CC3CCC4(CC3)CC4)c12)C1CCC1 [Example 3.4, 6-{[(1R)-1-cyclobutylethyl]amino}-7-(spiro[2.5]oct-6-ylmethyl)-7H-purine-2-carboxylic acid]
- IC50 (Table 3): 2700 nM

SMILES: C[C@@H](Nc1nc(C(=O)O)nc2ncn(C[C@H]3CC[C@H](C)CC3)c12)C1CCC1 [Example 1.2, 6-{[(1R)-1-cyclobutylethyl]amino}-7-[(trans-4-methylcyclohexyl)methyl]-7H-purine-2-carboxylic acid]
- IC50 (Table 1): 68.5 nM
